Columns and labels:
Test in all cases: KinomeScan profiling
Type in all cases: binding
PLK3 = PLK3 (Homo sapiens, UniProt Q9H4B4); details: PLK3, 1 μM; read-out: % control
Method in brief: (§1)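 The panel spans 468 kinases, and each inventive compound was applied at 1 μM from DMSO. Lower % control means stronger binding; the activity cut-off is set at less than 35%.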

CDKL3 = CDKL3 (Homo sapiens, UniProt Q8IVW4); details: CDKL3, 1 μM; read-out: % control
Method in brief: as §1

[1] = biological target: T1, JAK3(JH1domain-catalytic) (Homo sapiens, UniProt P52333); details: read-out: % control
T1 construct: JAK3(JH1domain-catalytic); purchased KinomeScan®
T1 sequence (P52333 822-1111 limits assumed): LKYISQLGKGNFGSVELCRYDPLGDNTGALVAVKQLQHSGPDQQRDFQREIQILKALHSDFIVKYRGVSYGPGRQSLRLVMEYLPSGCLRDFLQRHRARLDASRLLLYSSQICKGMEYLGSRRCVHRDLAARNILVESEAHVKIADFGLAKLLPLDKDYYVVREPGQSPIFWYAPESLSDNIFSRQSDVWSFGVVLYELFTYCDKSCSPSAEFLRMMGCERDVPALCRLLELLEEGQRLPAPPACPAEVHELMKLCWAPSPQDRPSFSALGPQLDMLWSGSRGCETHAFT
Method in brief: as §1

HIPK4 = biological target: T2, HIPK4 (Homo sapiens, UniProt Q8NE63); details: HIPK4, 1 μM; read-out: % control
T2 sequence (Q8NE63 1-616): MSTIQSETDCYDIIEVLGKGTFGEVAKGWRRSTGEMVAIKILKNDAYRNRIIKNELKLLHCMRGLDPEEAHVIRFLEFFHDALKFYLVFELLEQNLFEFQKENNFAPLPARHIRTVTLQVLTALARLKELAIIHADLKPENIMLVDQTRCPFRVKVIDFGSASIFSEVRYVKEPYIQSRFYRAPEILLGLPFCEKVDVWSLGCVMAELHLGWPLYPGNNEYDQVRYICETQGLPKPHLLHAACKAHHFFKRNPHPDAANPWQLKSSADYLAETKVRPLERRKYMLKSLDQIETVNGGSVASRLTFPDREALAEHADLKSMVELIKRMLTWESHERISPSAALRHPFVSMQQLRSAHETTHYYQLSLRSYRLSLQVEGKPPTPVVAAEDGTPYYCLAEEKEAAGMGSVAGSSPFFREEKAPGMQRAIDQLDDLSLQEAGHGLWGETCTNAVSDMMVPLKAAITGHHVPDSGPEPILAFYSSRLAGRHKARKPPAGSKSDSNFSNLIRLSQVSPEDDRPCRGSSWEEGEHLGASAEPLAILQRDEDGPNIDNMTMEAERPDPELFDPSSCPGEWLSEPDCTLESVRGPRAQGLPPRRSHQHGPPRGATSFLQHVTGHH
Method in brief: as §1

ZAP70 = biological target: T3, ZAP70 (Homo sapiens, UniProt P43403); details: ZAP70, 1 μM; read-out: % control
T3 sequence (P43403 1-619): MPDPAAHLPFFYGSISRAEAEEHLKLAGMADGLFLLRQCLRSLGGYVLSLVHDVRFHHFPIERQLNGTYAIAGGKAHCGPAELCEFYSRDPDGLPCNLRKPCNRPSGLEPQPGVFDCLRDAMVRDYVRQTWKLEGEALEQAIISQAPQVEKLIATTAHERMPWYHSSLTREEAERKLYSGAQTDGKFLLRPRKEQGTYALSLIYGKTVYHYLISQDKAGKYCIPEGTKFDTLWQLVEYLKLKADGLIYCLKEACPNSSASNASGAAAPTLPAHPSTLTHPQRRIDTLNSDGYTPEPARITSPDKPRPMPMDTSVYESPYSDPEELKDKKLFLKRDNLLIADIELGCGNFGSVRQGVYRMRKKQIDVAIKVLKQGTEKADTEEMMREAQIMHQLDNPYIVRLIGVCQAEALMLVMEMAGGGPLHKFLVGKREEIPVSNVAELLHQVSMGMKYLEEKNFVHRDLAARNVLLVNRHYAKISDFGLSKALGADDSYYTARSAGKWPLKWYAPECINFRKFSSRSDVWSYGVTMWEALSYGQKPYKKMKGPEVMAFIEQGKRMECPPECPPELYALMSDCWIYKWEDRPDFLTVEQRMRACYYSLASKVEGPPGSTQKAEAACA
Method in brief: as §1

PKN1 = PKN1 (Homo sapiens, UniProt Q16512); details: PKN1, 1 μM; read-out: % control
PKN1, sequence (Q16512 whole entry): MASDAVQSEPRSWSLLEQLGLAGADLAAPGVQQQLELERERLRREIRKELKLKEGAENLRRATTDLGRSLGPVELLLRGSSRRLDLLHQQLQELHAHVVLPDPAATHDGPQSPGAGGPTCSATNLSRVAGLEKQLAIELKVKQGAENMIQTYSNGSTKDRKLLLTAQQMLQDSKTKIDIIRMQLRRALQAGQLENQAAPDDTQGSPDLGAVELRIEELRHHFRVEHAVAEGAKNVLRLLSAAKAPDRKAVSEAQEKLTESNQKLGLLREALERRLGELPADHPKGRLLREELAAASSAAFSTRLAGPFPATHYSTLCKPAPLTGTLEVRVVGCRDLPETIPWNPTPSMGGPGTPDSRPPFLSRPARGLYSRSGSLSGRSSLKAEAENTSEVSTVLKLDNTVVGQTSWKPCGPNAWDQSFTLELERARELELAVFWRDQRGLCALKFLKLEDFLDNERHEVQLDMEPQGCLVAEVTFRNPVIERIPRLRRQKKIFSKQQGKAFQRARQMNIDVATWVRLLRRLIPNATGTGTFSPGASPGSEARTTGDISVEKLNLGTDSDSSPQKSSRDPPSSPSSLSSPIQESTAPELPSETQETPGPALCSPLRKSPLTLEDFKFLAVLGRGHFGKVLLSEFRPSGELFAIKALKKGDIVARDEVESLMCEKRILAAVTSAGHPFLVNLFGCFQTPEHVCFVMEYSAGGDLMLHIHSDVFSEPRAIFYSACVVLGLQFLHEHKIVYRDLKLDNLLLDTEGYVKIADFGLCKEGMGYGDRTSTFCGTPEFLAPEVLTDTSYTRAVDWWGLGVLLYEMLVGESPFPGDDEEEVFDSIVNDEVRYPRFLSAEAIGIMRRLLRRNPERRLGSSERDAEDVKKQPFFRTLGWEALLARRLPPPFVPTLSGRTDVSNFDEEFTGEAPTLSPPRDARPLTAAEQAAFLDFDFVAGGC
Method in brief: as §1

BRSK1 = biological target: T4, BRSK1 (Homo sapiens, UniProt Q8TDC3); details: BRSK1, 1 μM; read-out: % control
T4 sequence (Q8TDC3 1-778): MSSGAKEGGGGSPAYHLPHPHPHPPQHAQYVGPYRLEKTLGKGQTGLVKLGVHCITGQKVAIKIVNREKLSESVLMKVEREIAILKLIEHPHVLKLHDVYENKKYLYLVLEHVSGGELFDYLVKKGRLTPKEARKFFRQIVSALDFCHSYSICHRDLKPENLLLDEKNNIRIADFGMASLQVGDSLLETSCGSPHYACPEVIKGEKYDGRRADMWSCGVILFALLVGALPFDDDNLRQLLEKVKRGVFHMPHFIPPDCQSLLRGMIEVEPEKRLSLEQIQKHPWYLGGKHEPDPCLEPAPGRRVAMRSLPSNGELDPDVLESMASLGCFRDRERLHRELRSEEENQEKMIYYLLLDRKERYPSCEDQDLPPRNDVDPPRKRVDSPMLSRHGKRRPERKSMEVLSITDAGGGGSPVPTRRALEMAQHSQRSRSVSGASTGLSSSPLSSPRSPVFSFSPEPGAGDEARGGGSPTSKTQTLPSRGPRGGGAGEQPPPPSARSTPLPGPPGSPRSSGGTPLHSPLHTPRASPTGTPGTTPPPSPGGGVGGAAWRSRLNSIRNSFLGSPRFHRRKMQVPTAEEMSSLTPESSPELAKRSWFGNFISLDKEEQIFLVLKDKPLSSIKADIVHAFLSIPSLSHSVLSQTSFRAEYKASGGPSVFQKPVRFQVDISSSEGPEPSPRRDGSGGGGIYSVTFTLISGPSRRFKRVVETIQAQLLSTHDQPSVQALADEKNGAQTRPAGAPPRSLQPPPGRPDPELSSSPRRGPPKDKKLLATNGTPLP
Method in brief: as §1

[2] = biological target: T5, ABL1(E255K)-phosphorylated (Homo sapiens, UniProt P00519, E255K); details: read-out: % control
T5 construct: purchased KinomeScan®
T5 sequence (P00519 whole entry E255K): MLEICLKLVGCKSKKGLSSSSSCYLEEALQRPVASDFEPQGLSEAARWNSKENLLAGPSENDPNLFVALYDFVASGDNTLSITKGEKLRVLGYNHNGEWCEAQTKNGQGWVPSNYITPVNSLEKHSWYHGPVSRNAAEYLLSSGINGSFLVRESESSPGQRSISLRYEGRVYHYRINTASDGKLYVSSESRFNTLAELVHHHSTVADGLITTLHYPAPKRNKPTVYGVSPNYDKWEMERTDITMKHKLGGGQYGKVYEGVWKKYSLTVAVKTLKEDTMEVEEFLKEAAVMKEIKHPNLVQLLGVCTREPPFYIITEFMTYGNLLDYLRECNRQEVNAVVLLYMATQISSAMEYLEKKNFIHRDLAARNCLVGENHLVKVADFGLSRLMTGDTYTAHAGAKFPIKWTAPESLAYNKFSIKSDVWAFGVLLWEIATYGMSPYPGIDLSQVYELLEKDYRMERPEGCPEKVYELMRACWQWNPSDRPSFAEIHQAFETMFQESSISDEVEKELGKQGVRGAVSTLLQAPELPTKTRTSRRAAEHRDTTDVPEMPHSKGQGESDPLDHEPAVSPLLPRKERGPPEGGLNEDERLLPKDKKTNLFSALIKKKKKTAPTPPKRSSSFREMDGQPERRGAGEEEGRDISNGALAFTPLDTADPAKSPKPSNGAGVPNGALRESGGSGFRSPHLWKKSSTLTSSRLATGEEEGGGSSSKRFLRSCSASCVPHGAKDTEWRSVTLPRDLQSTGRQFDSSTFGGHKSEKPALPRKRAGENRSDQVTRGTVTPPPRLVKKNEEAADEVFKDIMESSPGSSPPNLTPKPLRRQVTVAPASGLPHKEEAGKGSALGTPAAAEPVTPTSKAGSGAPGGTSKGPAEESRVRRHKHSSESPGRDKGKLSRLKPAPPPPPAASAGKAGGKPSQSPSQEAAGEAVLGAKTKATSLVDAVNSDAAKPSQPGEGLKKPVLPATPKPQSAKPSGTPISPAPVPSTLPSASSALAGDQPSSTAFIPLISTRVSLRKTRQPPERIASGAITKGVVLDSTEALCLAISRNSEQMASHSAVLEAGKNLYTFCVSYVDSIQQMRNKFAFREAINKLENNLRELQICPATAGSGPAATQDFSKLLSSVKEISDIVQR
Method in brief: as §1

CLK4 = CLK4 (Homo sapiens, UniProt Q9HAZ1); details: CLK4, 1 μM; read-out: % control
CLK4, sequence (Q9HAZ1 whole entry): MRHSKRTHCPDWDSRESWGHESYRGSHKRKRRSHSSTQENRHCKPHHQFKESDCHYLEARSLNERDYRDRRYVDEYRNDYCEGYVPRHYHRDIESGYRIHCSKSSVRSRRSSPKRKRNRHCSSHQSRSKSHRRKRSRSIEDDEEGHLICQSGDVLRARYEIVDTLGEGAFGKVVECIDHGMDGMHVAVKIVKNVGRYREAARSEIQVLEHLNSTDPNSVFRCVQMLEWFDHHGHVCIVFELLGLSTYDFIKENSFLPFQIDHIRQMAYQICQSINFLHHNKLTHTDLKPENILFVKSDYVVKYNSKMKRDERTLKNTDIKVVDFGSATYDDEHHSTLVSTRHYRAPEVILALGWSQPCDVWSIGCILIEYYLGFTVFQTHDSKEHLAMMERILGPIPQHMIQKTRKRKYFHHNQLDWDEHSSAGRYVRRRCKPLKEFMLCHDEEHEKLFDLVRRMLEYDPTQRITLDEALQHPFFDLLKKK
Method in brief: as §1

[3] = biological target: T6, RSK1(Kin.Dom.1-N-terminal) (Homo sapiens, UniProt Q15418); details: read-out: % control
T6 construct: RSK1(Kin.Dom.1-N-terminal)
T6 sequence (Q15418 62-321 limits assumed): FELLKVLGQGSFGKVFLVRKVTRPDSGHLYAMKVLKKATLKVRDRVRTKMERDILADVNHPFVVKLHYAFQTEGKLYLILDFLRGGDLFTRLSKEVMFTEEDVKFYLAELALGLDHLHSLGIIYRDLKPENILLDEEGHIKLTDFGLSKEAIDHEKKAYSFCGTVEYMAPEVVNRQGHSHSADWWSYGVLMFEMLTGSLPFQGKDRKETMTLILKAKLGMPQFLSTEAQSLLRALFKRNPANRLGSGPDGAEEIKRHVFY
Method in brief: as §1

CDKL3, sequence (Q8IVW4 whole entry): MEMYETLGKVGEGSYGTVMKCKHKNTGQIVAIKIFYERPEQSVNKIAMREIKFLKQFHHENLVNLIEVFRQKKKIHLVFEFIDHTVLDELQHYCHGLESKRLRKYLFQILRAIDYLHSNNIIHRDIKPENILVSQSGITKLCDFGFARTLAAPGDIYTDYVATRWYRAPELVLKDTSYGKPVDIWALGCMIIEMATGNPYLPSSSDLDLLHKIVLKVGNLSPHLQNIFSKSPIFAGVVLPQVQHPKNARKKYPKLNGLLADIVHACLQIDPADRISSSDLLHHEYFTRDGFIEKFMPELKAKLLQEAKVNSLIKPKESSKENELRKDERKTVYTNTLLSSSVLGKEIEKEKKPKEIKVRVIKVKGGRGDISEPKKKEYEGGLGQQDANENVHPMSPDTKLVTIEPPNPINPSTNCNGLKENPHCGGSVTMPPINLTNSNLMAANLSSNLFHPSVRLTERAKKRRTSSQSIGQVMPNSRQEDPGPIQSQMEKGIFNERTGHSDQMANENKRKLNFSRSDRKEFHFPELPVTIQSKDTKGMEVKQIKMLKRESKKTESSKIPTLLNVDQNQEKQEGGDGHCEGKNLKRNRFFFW
PLK3, sequence (Q9H4B4 whole entry): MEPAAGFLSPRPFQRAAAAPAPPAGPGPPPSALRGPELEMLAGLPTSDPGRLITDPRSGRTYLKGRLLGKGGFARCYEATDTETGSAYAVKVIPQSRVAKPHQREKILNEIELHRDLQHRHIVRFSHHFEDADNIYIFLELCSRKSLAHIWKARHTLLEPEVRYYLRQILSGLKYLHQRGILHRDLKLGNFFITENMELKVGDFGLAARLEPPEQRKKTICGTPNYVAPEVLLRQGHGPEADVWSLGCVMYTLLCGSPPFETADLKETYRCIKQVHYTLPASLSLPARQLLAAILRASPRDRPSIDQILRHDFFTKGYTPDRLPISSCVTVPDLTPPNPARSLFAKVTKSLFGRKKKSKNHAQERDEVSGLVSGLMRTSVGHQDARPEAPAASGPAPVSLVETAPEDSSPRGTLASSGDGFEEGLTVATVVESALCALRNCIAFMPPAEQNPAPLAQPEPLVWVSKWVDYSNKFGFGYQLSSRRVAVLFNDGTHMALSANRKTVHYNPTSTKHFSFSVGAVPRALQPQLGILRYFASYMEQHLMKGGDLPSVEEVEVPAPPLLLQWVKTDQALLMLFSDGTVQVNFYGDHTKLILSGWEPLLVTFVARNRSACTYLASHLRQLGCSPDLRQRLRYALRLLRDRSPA

SMILES	remaining binding at 1 µM (PLK3)	remaining binding at 1 µM (CDKL3)	remaining binding at 1 µM [1]	remaining binding at 1 µM (HIPK4)	remaining binding at 1 µM (ZAP70)	remaining binding at 1 µM (PKN1)	remaining binding at 1 µM (BRSK1)	remaining binding at 1 µM [2]	remaining binding at 1 µM (CLK4)	remaining binding at 1 µM [3]
O=C(c1ccc(-c2cnc3[nH]cc(Cl)c3c2NC2CCCC2)cc1)N1CCC(N2CCOCC2)CC1 [Compound 101, (4-(3-chloro-4-(cyclopentylamino)-1H-pyrrolo[2,3-b]pyridin-5-yl)phenyl)(4-morpholinopiperidin-1-yl)methanone]	84%	100%	62%	79%	55%	100%	100%	100%	42%	80%
CNc1c(-c2cnn([C@H]3CCN(C(C)=O)C[C@@H]3F)c2)cnc2[nH]cc(Cl)c12 [Compound 77, 1-((3S,4S)-4-(4-(3-chloro-4-(methylamino)-1H-pyrrolo[2,3-b]pyridin-5-yl)-1H-pyrazol-1-yl)-3-fluoropiperidin-1-yl)ethan-1-one]	78%	94%	8.2%	84%	100%	100%	100%	73%	72%	93%
CNc1c(-c2ccc(C(=O)N3CCC(N4CCOCC4)CC3)cc2)cnc2[nH]cc(Cl)c12 [Compound 96, (4-(3-chloro-4-(methylamino)-1H-pyrrolo[2,3-b]pyridin-5-yl)phenyl)(4-morpholinopiperidin-1-yl)methanone]	99%	100%	7.8%	64%	100%	95%	100%	92%	11%	100%

From US12275731B2, “Azaindole inhibitors of wild-type and mutant forms of LRRK2” (DANA-FARBER CANCER INSTITUTE, INC., priority 2018, dated 2025)
